These results are taken from BindingDB's records for doi:10.1021/jm051074u (Cephalon, 2007).

For the assay, the target named is Mitogen-activated protein kinase kinase kinase 10 (Homo sapiens, UniProt Q02779). The assay can be described thus: Mixed-Lineage Kinase Assays. The procedure:
The MLK1, MLK2, and MLK3 assays were performed using the Millipore multiscreen trichloroacetic acid (TCA) in-plate format. IC50 values were calculated by nonlinear regression using the sigmoidal dose-response (variable slope) equation in GraphPad Prism.

Mitogen-activated protein kinase kinase kinase 10, sequence (Q02779 whole entry): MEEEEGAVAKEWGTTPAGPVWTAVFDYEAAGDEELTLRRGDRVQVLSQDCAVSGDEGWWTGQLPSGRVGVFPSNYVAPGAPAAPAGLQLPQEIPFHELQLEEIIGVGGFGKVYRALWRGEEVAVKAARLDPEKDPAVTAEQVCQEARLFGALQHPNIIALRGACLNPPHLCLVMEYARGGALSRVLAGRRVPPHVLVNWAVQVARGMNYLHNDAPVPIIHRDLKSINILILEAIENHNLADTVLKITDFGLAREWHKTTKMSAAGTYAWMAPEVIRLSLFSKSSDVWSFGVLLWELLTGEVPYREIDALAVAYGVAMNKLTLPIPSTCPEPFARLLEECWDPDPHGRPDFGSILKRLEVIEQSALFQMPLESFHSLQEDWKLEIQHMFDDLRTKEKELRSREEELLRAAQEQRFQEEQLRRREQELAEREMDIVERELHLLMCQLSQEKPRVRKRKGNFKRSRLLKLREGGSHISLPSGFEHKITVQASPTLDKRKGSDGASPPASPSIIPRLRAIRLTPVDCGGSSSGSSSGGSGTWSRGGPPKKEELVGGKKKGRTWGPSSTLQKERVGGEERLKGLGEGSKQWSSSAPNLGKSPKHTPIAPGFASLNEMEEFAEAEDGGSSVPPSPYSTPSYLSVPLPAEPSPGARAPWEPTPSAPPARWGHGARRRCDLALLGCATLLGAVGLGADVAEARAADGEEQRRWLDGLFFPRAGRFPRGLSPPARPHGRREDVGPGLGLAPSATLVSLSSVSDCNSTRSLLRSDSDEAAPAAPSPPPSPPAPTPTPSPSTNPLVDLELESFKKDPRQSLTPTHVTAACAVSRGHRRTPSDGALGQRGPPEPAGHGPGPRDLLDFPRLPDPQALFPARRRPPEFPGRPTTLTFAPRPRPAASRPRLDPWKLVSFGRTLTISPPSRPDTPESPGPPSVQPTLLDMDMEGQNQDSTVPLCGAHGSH

Consider `COC(=O)[C@@]1(O)C[C@H]2O[C@]1(C)n1c3ccccc3c3c4c(c5c6ccccc6n2c5c31)C(=O)NC4`, for which the IC50 came to 45 nM.
